In ChEMBL document CHEMBL1201862, “PubChem BioAssay data set” (2004):
The source made the active and inactive calls.

Key:
[1] = molecular target: Heat shock protein HSP 90-alpha (Homo sapiens, UniProt P07900); assay: Luminescence-based dose response biochemical high throughput screening assay for inhibitors of the Heat Shock Protein 90 (HSP90). [Related pubchem assays: 1831 (Summary AID.), 1846 (Confirmation screen.), 1789 (Primary screen.)]
[2] = molecular target: T1, Bcl-2-related protein A1 (Mus musculus, UniProt Q07440); assay: Bfl-1 inhibitors, primary screen, biochemical, fluorescence polarization, FITC-Bid, mouse (AID 432)
T1 sequence (Q07440 whole entry): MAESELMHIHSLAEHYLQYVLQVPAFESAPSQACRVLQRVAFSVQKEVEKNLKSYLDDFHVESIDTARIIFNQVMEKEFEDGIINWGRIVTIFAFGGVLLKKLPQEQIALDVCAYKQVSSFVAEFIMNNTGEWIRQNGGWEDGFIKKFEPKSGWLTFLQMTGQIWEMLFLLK

[3] = molecular target: T1, Bcl-2-related protein A1; assay: Bfl-1 inhibitors blocking BH3 peptide binding, confirmation, biochemical, TR-FRET, mouse Bfl-1 (AID 621);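 also: TR-FRET binding of GST-Bfl-1 to FITC-labelled Bid peptide via terbium antibody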
[4] = molecular target: Intestinal-type alkaline phosphatase (Mus musculus, UniProt P24822); assay: PubChem AID 488785; type: functional
[5] = molecular target: T2, Alkaline phosphatase, tissue-nonspecific isozyme (Homo sapiens, UniProt P05186); assay: TNAP enzyme inhibition by screening hits, dose response, selectivity assay for mouse IAP inhibitor project, biochemical, human TNAP, uHTS hits (AID 488906); type: functional
T2 sequence (P05186 whole entry): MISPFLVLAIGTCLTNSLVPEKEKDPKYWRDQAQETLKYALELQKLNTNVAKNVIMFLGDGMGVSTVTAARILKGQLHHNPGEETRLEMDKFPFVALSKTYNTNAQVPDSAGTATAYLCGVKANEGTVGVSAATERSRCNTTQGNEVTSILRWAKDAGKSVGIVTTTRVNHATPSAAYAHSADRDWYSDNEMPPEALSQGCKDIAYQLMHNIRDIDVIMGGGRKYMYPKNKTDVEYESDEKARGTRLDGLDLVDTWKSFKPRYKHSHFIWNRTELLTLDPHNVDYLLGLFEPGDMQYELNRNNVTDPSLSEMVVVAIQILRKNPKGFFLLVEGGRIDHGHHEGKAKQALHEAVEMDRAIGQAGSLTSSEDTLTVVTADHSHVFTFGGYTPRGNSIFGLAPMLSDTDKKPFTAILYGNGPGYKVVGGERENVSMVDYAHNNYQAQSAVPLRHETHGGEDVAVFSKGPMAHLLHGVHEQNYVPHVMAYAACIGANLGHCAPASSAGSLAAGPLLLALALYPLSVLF

[6] = molecular target: Lysine-specific demethylase 4C (Homo sapiens, UniProt Q9H3R0); assay: GASC-1 (JMJD2C) histone demethylase inhibitors, dose response, biochemical, DELFIA europium, cherry-picked samples (AID 488835); type: functional
[7] = molecular target: Intestinal-type alkaline phosphatase (Homo sapiens, UniProt P09923); assay: inhibition of human intestinal alkaline phosphatase – biochemical, dose response (AID 488876); type: functional
[8] = molecular target: Cytochrome P450 2C19 (Homo sapiens, UniProt P33261); assay: Cytochrome panel assay with activity outcomes. Panel member name: p450-cyp2c19 Compounds with AC50 equal or less than 10 uM are considered active; type: functional; conditions: read-out: AC50
[9] = Concentration-dependent survival of SW480 colon cancer line, luminescence detection with CellTiter-Glo, half-maximal inhibitory concentration (AID 1117338); type: functional
[10] = RKO cell viability reduction, dose response, CellTiter-Glo luminescence (AID 1117322); type: functional
[11] = cytotoxicity toward HCT116 cells – cell-based, CellTiter-Glo luminescence, IC50, dose response (AID 1117332); type: functional; conditions: HCT-116
[12] = SNU-C1 cell viability reduction, dose response, CellTiter-Glo luminescence (AID 1117323); type: functional, cell-based
[13] = cytotoxicity toward Colo320 cells – cell-based, CellTiter-Glo luminescence, IC50, dose response (AID 1117334); type: functional; conditions: COLO 320
[14] = cytotoxicity toward HT-29 cells – cell-based, CellTiter-Glo luminescence, IC50, dose response (AID 1117330); type: functional
[15] = CellTiter-Glo luminescent dose response of DLD-1 viability loss (AID 1117352); type: functional
[16] = HCT116 cell viability decrease, GSK3B pretreatment – CellTiter-Glo, IC50, dose response (AID 1117339); type: functional; conditions: HCT-116
[17] = molecular target: Cytochrome P450 2D6 (Homo sapiens, UniProt P10635);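 also: CYP2D6 member of a cytochrome P450 panel assay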
[18] = Vero cell cytotoxicity, dose response, cytotoxicity control for Vif-APOBEC3G degradation inhibitor project, Vero cells (AID 1117358); type: functional; conditions: Human immunodeficiency virus 1, Vero
[19] = molecular target: T3, SUMO-activating enzyme (Homo sapiens, UniProt Q9UBT2); assay: SUMOylation inhibitor hit validation, confirmation, SUMOylation inhibitor project, biochemical, AlphaScreen (AID 2018); type: functional
[20] = molecular target: T4, Voltage-gated N-type calcium channel alpha-1B subunit/Amyloid beta A4 precursor protein-binding family A member 1 (Homo sapiens, UniProt Q00975+Q02410); type: protein assay
[21] = molecular target: Large T antigen (Simian virus 40, UniProt P03070); type: functional, Betapolyomavirus macacae;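 also: Confirmatory-stage PubChem screen for compounds that inhibit SV40 T antigen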
[22] = molecular target: T3, SUMO-activating enzyme; assay: inhibitors of in vitro SUMOylation cascade, primary screen, biochemical, HTRF, uHTS (AID 2006); type: protein-complex assay
[23] = molecular target: T4, Voltage-gated N-type calcium channel alpha-1B subunit/Amyloid beta A4 precursor protein-binding family A member 1; type: protein assay; remark: listed apart in the source
[24] = molecular target: Bifunctional protein GlmU (Mycobacterium tuberculosis, UniProt P9WMN3); assay: Inhibitors of Mycobacterial Glucosamine-1-phosphate acetyl transferase (GlmU). Secondary screen.; parameters: species or system Mycobacterium tuberculosis H37Rv
[25] = molecular target: Induced myeloid leukemia cell differentiation protein Mcl-1 (Homo sapiens, UniProt Q07820); type: functional
[26] = molecular target: ORF 73 (Human herpesvirus 8, UniProt O40947); assay: inhibitors of C-LANA binding to LBS DNA, dose response, biochemical, fluorescence polarization, cherry-picked samples (AID 504725); parameters: species or system Human gammaherpesvirus 8;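 also: fluorescence polarization of a labeled DNA duplex reporting LANA DNA binding; potency is for inhibitors that block LANA binding to the DNA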
[27] = molecular target: Eukaryotic translation initiation factor 4E (Mus musculus, UniProt P63073); assay: eIF4E–eIF4G protein interaction inhibitors, dose response, biochemical, TR-FRET (AID 855); type: functional;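 also: potency for disrupting eIF4E binding to eIF4GI seen as loss of FRET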
[28] = molecular target: Beta-adrenergic receptor kinase 1 (Homo sapiens, UniProt P25098); assay: aptamer displacement from bead-bound GRK2 – biochemical, cherry pick 1, bead flow cytometry, dose response (AID 504500)
[29] = molecular target: Glutathione-S-transferase (Schistosoma japonicum, UniProt Q26513); assay: biotin-GST/anti-GST TR-FRET signal inhibitors, dose response, artefact control for Vif-APOBEC3G degradation inhibitor project, biochemical (AID 1117362); type: functional
[30] = P. falciparum Dd2 growth inhibitors, dose response, SYBR Green, dry powder samples, set 9 (AID 1159568); type: functional, cell-based

Sequence of Beta-adrenergic receptor kinase 1 (P25098 whole entry): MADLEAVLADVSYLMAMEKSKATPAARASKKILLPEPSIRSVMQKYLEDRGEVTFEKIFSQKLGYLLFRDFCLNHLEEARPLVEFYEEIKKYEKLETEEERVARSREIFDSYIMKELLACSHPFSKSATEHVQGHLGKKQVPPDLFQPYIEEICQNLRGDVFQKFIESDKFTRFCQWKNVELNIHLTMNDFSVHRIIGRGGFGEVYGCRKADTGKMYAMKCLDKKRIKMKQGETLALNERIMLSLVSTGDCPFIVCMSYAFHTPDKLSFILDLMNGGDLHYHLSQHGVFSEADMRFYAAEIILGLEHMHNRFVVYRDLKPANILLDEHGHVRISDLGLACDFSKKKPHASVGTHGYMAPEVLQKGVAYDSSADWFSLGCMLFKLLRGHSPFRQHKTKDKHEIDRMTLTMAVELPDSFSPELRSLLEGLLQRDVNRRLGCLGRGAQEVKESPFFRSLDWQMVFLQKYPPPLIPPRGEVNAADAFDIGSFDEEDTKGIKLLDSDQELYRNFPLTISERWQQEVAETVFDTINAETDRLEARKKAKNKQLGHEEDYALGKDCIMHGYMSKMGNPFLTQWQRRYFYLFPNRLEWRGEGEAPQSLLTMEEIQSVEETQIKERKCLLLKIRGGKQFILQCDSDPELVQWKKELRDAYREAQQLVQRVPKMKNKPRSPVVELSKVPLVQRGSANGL
T4 sequence (Q00975 whole entry): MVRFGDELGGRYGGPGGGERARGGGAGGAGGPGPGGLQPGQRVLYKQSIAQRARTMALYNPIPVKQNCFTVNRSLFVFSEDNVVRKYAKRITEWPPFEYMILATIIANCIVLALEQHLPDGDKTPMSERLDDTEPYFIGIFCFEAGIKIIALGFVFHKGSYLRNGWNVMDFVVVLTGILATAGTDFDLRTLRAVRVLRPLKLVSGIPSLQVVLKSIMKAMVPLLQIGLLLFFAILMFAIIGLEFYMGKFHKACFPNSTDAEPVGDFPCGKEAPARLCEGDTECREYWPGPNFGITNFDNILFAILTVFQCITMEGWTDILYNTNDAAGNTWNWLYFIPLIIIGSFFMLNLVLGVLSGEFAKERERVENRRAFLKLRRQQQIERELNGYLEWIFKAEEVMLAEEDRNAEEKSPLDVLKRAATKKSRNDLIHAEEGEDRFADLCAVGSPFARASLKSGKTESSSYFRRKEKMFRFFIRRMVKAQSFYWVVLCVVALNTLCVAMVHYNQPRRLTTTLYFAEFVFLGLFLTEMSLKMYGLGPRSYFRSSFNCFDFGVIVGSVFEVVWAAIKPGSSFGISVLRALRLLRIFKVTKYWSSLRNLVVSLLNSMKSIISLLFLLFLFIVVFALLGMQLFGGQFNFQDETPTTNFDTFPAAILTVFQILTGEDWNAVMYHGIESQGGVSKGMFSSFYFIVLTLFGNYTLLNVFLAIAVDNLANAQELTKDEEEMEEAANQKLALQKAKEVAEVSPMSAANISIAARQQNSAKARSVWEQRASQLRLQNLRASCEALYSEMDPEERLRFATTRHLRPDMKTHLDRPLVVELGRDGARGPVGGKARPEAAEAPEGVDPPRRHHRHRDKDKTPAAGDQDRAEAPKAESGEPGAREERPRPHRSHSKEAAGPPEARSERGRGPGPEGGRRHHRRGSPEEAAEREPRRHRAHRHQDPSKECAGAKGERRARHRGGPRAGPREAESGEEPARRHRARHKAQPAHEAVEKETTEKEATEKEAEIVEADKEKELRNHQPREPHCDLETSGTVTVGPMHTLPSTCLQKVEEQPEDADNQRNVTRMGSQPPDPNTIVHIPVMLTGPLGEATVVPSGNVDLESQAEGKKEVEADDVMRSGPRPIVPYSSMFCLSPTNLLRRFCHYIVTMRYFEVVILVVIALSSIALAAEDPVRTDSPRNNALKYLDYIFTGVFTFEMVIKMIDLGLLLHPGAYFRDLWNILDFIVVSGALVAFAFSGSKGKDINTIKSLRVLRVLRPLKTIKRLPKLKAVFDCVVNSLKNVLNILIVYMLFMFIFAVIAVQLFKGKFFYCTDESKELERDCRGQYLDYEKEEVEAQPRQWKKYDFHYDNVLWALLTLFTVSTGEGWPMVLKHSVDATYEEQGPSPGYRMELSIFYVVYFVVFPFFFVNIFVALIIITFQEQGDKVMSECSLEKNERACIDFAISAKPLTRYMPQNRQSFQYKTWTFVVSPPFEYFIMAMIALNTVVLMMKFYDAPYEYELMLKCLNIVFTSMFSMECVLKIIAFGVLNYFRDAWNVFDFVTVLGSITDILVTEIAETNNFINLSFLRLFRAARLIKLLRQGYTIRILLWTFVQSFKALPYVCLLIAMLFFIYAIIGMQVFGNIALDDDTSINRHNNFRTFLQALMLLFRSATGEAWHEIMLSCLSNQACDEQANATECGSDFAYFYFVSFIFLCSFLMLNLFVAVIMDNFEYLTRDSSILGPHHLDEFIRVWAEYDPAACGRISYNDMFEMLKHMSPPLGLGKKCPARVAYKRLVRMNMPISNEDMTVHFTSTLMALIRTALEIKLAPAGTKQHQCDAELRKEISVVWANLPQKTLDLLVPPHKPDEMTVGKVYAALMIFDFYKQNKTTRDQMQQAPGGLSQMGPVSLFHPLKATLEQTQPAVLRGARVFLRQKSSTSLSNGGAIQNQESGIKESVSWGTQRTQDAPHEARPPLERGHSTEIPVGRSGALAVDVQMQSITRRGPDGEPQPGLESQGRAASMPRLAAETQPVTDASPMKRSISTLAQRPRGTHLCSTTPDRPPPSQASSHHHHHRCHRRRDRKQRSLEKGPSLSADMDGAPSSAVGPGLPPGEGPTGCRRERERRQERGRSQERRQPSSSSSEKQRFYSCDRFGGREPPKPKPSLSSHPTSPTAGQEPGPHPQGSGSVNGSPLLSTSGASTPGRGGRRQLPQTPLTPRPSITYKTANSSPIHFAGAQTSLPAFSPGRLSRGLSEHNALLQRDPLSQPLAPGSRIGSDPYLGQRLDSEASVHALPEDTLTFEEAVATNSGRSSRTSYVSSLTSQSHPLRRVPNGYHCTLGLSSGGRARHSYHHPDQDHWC
T4 sequence (Q02410 whole entry): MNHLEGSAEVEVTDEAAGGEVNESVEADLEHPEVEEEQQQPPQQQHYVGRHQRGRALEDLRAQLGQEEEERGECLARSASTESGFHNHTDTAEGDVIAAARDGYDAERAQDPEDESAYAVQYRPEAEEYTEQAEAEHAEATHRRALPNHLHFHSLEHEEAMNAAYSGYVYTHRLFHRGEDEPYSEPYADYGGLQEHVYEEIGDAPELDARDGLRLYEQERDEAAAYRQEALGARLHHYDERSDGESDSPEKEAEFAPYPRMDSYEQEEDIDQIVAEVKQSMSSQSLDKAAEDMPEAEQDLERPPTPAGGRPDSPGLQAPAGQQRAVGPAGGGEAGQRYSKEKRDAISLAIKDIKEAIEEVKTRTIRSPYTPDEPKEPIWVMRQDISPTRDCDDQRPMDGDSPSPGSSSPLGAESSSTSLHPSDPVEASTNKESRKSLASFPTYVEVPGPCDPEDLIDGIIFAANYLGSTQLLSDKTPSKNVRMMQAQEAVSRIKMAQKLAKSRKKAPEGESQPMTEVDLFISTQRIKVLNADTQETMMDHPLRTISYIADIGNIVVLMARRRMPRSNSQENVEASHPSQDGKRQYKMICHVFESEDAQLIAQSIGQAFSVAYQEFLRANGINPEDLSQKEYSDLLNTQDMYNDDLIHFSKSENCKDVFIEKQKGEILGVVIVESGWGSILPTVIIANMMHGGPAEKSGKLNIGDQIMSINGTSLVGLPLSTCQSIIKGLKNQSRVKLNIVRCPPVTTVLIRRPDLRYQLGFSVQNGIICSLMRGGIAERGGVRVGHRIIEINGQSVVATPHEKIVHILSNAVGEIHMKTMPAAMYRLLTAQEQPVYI
T3 sequence (Q9UBE0 whole entry): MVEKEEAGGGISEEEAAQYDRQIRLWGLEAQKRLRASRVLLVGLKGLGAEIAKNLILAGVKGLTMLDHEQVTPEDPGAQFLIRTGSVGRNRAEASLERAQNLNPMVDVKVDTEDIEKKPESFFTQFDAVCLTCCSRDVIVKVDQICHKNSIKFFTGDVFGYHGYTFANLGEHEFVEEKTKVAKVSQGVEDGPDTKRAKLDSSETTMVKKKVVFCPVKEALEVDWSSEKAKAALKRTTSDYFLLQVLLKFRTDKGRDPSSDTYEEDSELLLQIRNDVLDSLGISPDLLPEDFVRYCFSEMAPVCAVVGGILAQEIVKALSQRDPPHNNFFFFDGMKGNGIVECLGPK
T3 sequence (Q9UBT2 whole entry): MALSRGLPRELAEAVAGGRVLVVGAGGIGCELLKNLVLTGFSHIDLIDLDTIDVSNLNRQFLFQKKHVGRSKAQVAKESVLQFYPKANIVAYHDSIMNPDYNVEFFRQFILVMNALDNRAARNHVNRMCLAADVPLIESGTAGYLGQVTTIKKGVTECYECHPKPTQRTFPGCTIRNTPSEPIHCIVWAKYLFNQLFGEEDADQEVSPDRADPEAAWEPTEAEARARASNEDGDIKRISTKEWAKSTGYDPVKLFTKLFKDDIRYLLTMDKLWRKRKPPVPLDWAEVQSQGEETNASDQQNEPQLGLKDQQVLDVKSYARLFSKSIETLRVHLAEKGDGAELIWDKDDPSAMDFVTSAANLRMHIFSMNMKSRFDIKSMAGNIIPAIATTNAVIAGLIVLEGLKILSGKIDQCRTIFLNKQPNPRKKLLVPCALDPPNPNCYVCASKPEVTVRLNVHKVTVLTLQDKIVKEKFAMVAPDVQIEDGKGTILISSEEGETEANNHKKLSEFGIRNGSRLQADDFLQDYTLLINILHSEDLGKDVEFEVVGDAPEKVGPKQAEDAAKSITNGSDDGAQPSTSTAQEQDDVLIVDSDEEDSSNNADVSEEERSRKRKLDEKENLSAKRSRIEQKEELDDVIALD
Sequence of Glutathione-S-transferase (Q26513 whole entry): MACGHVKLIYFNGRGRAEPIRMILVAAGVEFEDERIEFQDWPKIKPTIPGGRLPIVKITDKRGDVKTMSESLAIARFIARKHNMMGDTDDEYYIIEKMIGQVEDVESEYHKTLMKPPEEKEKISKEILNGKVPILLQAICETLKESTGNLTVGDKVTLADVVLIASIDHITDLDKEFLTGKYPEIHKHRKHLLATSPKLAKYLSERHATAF

For `Cc1nc(NC(=O)c2ccc(F)cc2)sc1C(=O)Nc1ccc2c(c1)CCC2`, which IC50 [1] is on record?
Its IC50 is 3.84 µM (active).

With `CC(C)[C@H]1C(=O)N2CCC[C@H]2[C@]2(O)O[C@](NC(=O)[C@@H]3C=C4c5cccc6[nH]cc(c56)C[C@H]4N(C)C3)(C(C)C)C(=O)N12` [ERGOCORNINE] as the compound, how does the IC50 [2] read?
The IC50 was > 100 µM (not active).

What about the IC50 [3] of the same compound?
The IC50 was > 100 µM (not active).

Which IC50 [4] does the source give for `N#CC(C#N)=Cc1ccc(O)c(O)c1` [TYRPHOSTIN 23] here?
The IC50 was 4.22 µM (active).

And the IC50 [5]?
The IC50 was 9.97 µM (active).

What about the AC50 [6] of the same compound?
Its AC50 is 10.8 µM (active).

And the IC50 [7]?
Its IC50 is > 100 µM (inactive).

And the AC50 [8]?
Its AC50 is 15.8 µM (inconclusive).

And the IC50 [9]?
Its IC50 is > 20 µM (inactive).

What about the IC50 [10] of the same compound?
The IC50 was 3.78 µM (active).

What about the IC50 [11] of the same compound?
The IC50 was > 20 µM (inactive).

What about the IC50 [12] of the same compound?
The IC50 was > 20 µM (inactive).

What about the IC50 [13] of the same compound?
The IC50 was 6.74 µM (inactive).

And the IC50 [14]?
The IC50 was > 20 µM (inactive).

And the IC50 [15]?
The IC50 was > 20 µM (inactive).

What about the IC50 [16] of the same compound?
Its IC50 is > 20 µM (inactive).

And the AC50 [17]?
Its AC50 is 20 µM (inconclusive).

For `O=C(NCCc1ccc(Cl)cc1)C1CCN(C(=O)c2sccc2-n2cccc2)CC1`, which CC50 [18] is on record?
Its CC50 is > 40 µM (active).

Which results are given for `Cc1ccc(NC(=O)CN2C(=O)N/C(=C/c3cccn3-c3ccc(C(=O)O)cc3)C2=O)cc1`?
IC50 [19]: 1.09 µM (active); IC50 [20]: 10.5 µM (active); IC50 [21]: 24.7 µM (active); IC50 [22]: 12 µM (active); IC50 [23]: 28.9 µM (active); IC50 [24]: 29.4 µM (active); IC50 [25]: 0.996 µM (not active); AC50 [26]: 33.9 µM (active); IC50 [27]: 9.54 µM (active); EC50 [28]: 1.21 µM (active)

Which EC50 [28] does the source give for `C=C(C)C(=O)Nc1cccc(C2=NOC3(C2)C[C@@H](C(N)=O)N(C(=O)c2cc([N+](=O)[O-])cc([N+](=O)[O-])c2)C3)c1` (stereo partly specified) here?
Its EC50 is 10.6 µM (inactive).

And the IC50 [29]?
The IC50 was > 100 µM (active).

For `COc1ccc2c3c([nH]c2c1)[C@H](CO)N(Cc1ccccc1)CC31CN(C(=O)c2ccccn2)C1`, which AC50 [30] is on record?
The AC50 was 6.79 µM (active).
